Results: ChEMBL document CHEMBL3885881, “DrugMatrix”

Organism: Rattus norvegicus
Assay: DrugMatrix - Regimen: Daily Repeat
Type: toxicity, organism-based, Sprague-Dawley
Parameters: regimen Daily Repeat, gender Male, age 6-8 weeks
Details: in vivo, po, route oral GAVAGE, […]; for ABSOLUTE BASOPHIL / ABSOLUTE EOSINOPHIL / ABSOLUTE LYMPHOCYTE / ABSOLUTE MONOCYTE / ABSOLUTE SEGMENTED NEUTROPHIL / BASOPHIL / EOSINOPHIL / ERYTHROCYTE COUNT / HEMATOCRIT / HEMOGLOBIN / LEUKOCYTE COUNT / LYMPHOCYTE / MEAN CORPUSCULAR HEMOGLOBIN / MEAN CORPUSCULAR HEMOGLOBIN CONCENTRATION / MEAN CORPUSCULAR VOLUME / MONOCYTE / NEUTROPHIL / NUCLEATED RED BLOOD CELLS / PLATELET COUNT: tissue Blood; for ALANINE AMINOTRANSFERASE / ALBUMIN / ALKALINE PHOSPHATASE / ASPARTATE AMINOTRANSFERASE / BLOOD UREA NITROGEN / CARBON DIOXIDE / CHLORIDE / CHOLESTEROL / CREATINE PHOSPHOKINASE / CREATININE / GLUCOSE / LACTATE DEHYDROGENASE / LIPASE / PHOSPHORUS / POTASSIUM / SODIUM / TOTAL BILIRUBIN / TOTAL PROTEIN / URIC ACID: tissue Plasma
[1] = 6 mg/kg, 120 h, dose level Low, time 5 day
[2] = 74 mg/kg, 72 h, dose level High, time 3 day
[3] = 74 mg/kg, 120 h, dose level High, time 5 day

## CO[C@H]1O[C@@H]2O[C@@]3(C)CC[C@H]4[C@H](C)CC[C@@H]([C@H]1C)[C@@]24OO3
[1]
  ABSOLUTE BASOPHIL: 0 CELLS/uL
  ABSOLUTE EOSINOPHIL: 153 CELLS/uL
  ABSOLUTE LYMPHOCYTE: 12396 CELLS/uL
  ABSOLUTE MONOCYTE: 197.67 CELLS/uL
  ABSOLUTE SEGMENTED NEUTROPHIL: 1920 CELLS/uL
  BASOPHIL: 0%
  EOSINOPHIL: 1%
  ERYTHROCYTE COUNT: 5.88 x10E6/uL
  HEMATOCRIT: 36.63%
  HEMOGLOBIN: 13.47 G/DL
  LEUKOCYTE COUNT: 14.67 x10E3/uL
  LYMPHOCYTE: 84.33%
  MEAN CORPUSCULAR HEMOGLOBIN: 22.93 pg
  MEAN CORPUSCULAR HEMOGLOBIN CONCENTRATION: 36.8 G/DL
  MEAN CORPUSCULAR VOLUME: 62.33 fL
  MONOCYTE: 1.33%
  NEUTROPHIL: 13.33%
  NUCLEATED RED BLOOD CELLS: 0 /100WBC
  PLATELET COUNT: 1198.67 x10E3/uL
  ALANINE AMINOTRANSFERASE: 52.67 u/L
  ALBUMIN: 4.37 G/DL
  ALKALINE PHOSPHATASE: 430.33 u/L
  ASPARTATE AMINOTRANSFERASE: 101 u/L
  BLOOD UREA NITROGEN: 17.67 mg/dL
  CARBON DIOXIDE: 23.33 mmol/L
  CHLORIDE: 105.67 MEQ/L
  CHOLESTEROL: 58.67 mg/dL
  CREATINE PHOSPHOKINASE: 552.33 u/L
  CREATININE: 0.16 mg/dL
  GLUCOSE: 160 mg/dL
  LACTATE DEHYDROGENASE: 887.67 u/L
  LIPASE: 8.33 u/L
  PHOSPHORUS: 11.77 mg/dL
  POTASSIUM: 6.02 MEQ/L
  SODIUM: 144.53 MEQ/L
  TOTAL BILIRUBIN: 0.17 mg/dL
  TOTAL PROTEIN: 5.93 G/DL
  URIC ACID: 1.83 mg/dL
[2]
  ABSOLUTE BASOPHIL: 0 CELLS/uL
  ABSOLUTE EOSINOPHIL: 390 CELLS/uL
  ABSOLUTE LYMPHOCYTE: 14550 CELLS/uL
  ABSOLUTE MONOCYTE: 453 CELLS/uL
  ABSOLUTE SEGMENTED NEUTROPHIL: 1407 CELLS/uL
  BASOPHIL: 0%
  EOSINOPHIL: 2.33%
  ERYTHROCYTE COUNT: 5.21 x10E6/uL
  HEMATOCRIT: 33.1%
  HEMOGLOBIN: 12.6 G/DL
  LEUKOCYTE COUNT: 16.8 x10E3/uL
  LYMPHOCYTE: 86.67%
  MEAN CORPUSCULAR HEMOGLOBIN: 24.23 pg
  MEAN CORPUSCULAR HEMOGLOBIN CONCENTRATION: 38.07 G/DL
  MEAN CORPUSCULAR VOLUME: 63.67 fL
  MONOCYTE: 2.67%
  NEUTROPHIL: 8.33%
  NUCLEATED RED BLOOD CELLS: 0 /100WBC
  PLATELET COUNT: 1173 x10E3/uL
  ALANINE AMINOTRANSFERASE: 46 u/L
  ALBUMIN: 4.13 G/DL
  ALKALINE PHOSPHATASE: 349.67 u/L
  ASPARTATE AMINOTRANSFERASE: 77.33 u/L
  BLOOD UREA NITROGEN: 16 mg/dL
  CARBON DIOXIDE: 27 mmol/L
  CHLORIDE: 103.33 MEQ/L
  CHOLESTEROL: 66.67 mg/dL
  CREATINE PHOSPHOKINASE: 259.33 u/L
  CREATININE: 0.23 mg/dL
  GLUCOSE: 144.67 mg/dL
  LACTATE DEHYDROGENASE: 331.33 u/L
  LIPASE: 9.33 u/L
  PHOSPHORUS: 10.07 mg/dL
  POTASSIUM: 6.54 MEQ/L
  SODIUM: 142.23 MEQ/L
  TOTAL BILIRUBIN: 0.2 mg/dL
  TOTAL PROTEIN: 5.63 G/DL
  URIC ACID: 1.17 mg/dL
[3]
  ABSOLUTE BASOPHIL: 0 CELLS/uL
  ABSOLUTE EOSINOPHIL: 257.33 CELLS/uL
  ABSOLUTE LYMPHOCYTE: 17040 CELLS/uL
  ABSOLUTE MONOCYTE: 413.67 CELLS/uL
  ABSOLUTE SEGMENTED NEUTROPHIL: 1822.33 CELLS/uL
  BASOPHIL: 0%
  EOSINOPHIL: 1.33%
  ERYTHROCYTE COUNT: 6.13 x10E6/uL
  HEMATOCRIT: 36.63%
  HEMOGLOBIN: 13.57 G/DL
  LEUKOCYTE COUNT: 19.53 x10E3/uL
  LYMPHOCYTE: 87%
  MEAN CORPUSCULAR HEMOGLOBIN: 22.17 pg
  MEAN CORPUSCULAR HEMOGLOBIN CONCENTRATION: 37.03 G/DL
  MEAN CORPUSCULAR VOLUME: 59.77 fL
  MONOCYTE: 2%
  NEUTROPHIL: 9.67%
  NUCLEATED RED BLOOD CELLS: 0.33 /100WBC
  PLATELET COUNT: 1300.33 x10E3/uL
  ALANINE AMINOTRANSFERASE: 55.33 u/L
  ALBUMIN: 4.3 G/DL
  ALKALINE PHOSPHATASE: 329 u/L
  ASPARTATE AMINOTRANSFERASE: 100 u/L
  BLOOD UREA NITROGEN: 16.33 mg/dL
  CARBON DIOXIDE: 25 mmol/L
  CHLORIDE: 102.67 MEQ/L
  CHOLESTEROL: 51.67 mg/dL
  CREATINE PHOSPHOKINASE: 790.67 u/L
  CREATININE: 0.21 mg/dL
  GLUCOSE: 171.67 mg/dL
  LACTATE DEHYDROGENASE: 649.67 u/L
  LIPASE: 9.67 u/L
  PHOSPHORUS: 12.37 mg/dL
  POTASSIUM: 5.73 MEQ/L
  SODIUM: 143.53 MEQ/L
  TOTAL BILIRUBIN: 0.13 mg/dL
  TOTAL PROTEIN: 5.8 G/DL
  URIC ACID: 1.73 mg/dL
